From patent US9133231B2, “Compounds for treating bacterial infections” (Yissum Research Development Company of the Hebrew …, priority 2010, dated 2015) come the findings set out here.

Assay type in all cases: cell-based
For data set [1], the system named is B. subtilis. The data set is described as follows: Mature spore formation after induced sporulation (heat shock, CFU count). Here is the method:
Cells were grown to an OD600 of 0.5. They were then washed with synthetic medium on a membrane filter and suspended in synthetic medium lacking amino acids in order to induce them to sporulate in the presence and the absence of inhibitors. Sporulation was monitored by fluorescence microscopy.
In order to further evaluate the effect of compounds A2 on sporulation, wild type bacteria were induced to sporulate in the presence of different concentrations (from 200 to 1.8 mM) of compound A2 and the process was monitored using fluorescence microscopy. With the aim of learning about the fate of the spores formed in the previously described cultures, an aliquot from the cell culture was taken and subjected to heat treatment (heat shock). The treatment included exposure of the cultures to 80° C. for 15 minutes and further plating on LB plates. After incubating the plates for 15 hours at 37° C., the colony forming units (CFUs) were quantified and the percent of mature spore formation was calculated (FIG. 2B-C).
The influence of the timing of addition of A2 was evaluated. Bacteria were induced to sporulate and A2 (1.8 mM) was added to the cultures every two hours (at T=0, T=2, T=4 and T=6). After growing overnight the cultures were heated and plated on LB plates.

Data set [2] deals with A431 Epidermoid carcinoma cells. In words: MTT cytotoxicity assay on A431 cells. As to conditions: 72 hours incubation, up to 10 different concentrations, FIG. 8. How it is done: (§1) Cytotoxicity of compound A2 on eukaryotic (A431) and prokaryotic cells (B. Subtilis) was determined by using the methylthiazolyldiphenyl-tetrazolium bromide (MTT) assay. Bacteria were grown in CH medium and samples were taken and plated on LB plates after 24 hours of growth. The plates were incubated at 37° C. for 15 hours. Colony forming units (CFU) were counted and compared to the untreated culture. Viable bacterial cells are counted as CFU/mL: colony forming units per milliliter. Each CFU is equivalent to viable cell.
In a standard procedure, the cell line (A431: epidermoid carcinoma) was incubated for 24 hours in 37° C. and 5% CO2. Subsequently, compound A2 was added to the wells in up to 10 different concentrations. Subsequent to incubation of cells with A2 for an additional 72 hours, the MTT reagent was added.
A general note: Tetrazolium dyes change colour on reduction, which living cells bring about.

Data set [3] relates to B. subtilis. The data set is described as follows: Bacterial survival in CH medium (CFU after 24 hours of growth). How it is done: Bacteria were grown in CH medium and samples were taken and plated on LB plates after 24 hours of growth. The plates were incubated at 37° C. for 15 hours. Colony forming units (CFU) were counted and compared to the untreated culture.
as §1

Data set [4] deals with B. subtilis. The data set is described as follows: Growth and survival of B. subtilis growing in LB medium (CFU). As to conditions: 1.8 mM added at OD600 of 0.2, LB medium, 37° C.; FIG. 3. Here is the method: The effect of A2 on growth and survival of B. subtilis growing in LB medium was then evaluated. Bacteria were grown overnight at 23° C. and diluted to an OD600 of 0.05. Subsequently, bacteria were further grown at 37° C. and A2 (1.8 mM) was added at an OD600 of 0.2. Bacterial growth was then continuously monitored by measuring the turbidity of the medium at 600 nm (OD600). Samples were taken and plated on LB plates. The plates were incubated at 37° C. for 15 hours. Colony forming units (CFU) were counted and compared to the untreated culture.

For the molecule `CC(C)C(=O)Nc1nc2c(ncn2[C@H]2CC(OC(=O)NCC(=O)NCC(=O)O)[C@@H](COC(=O)NCC(=O)NCC(=O)O)O2)c(=O)[nH]1` (stereo partly shown) [Compound A2], the “reduction of the formation of mature spores” value in data set [1] (0.22 mM (lowest tested concentration), heat shock 80° C. 15 minutes, CFU, FIG. 2B-C) is “about 70%”. The inhibition at 1800 µM in data set [1] (Bacillus subtilis, 1.8 mM added at T=0, T=2, T=4 or T=6 after inducing sporulation, in every case, FIG. 7, read-out: inhibition of the formation of mature spores) was more than 80%. The molecule also registered an inhibition of sporulation in data set [1] (rest of the tested concentrations (above 0.22 mM, up to 1.8 mM), FIG. 2B-C) of 100%. Further, the “cytotoxicity to A431 cells (eukaryotic)” value in data set [2] is reported as “not to A431 cells”. The “cytotoxicity to B. Subtilis cells (prokaryotic)” value in data set [3] (CFU/mL after 24 hours of growth in CH medium, FIG. 8) is recorded as “completely cytotoxic”. In addition, the “CFU/mL of the treated cultures” value in data set [3] (CH medium, after 24 hours of growth, increasing concentrations, FIG. 6) is listed as “decreases in a dose dependent fashion”. Besides, in data set [4], the “number of CFUs compared to the untreated culture” value was “substantially reduced the number of CFUs”.

Usually inhibition stands for the percentage by which the read-out fell short of the control.
